Test results reported in US8293979B2, “Weed controller metabolism proteins, genes, thereof and use of the same” (Sumitomo Chemical Company, Limited, priority 2001, dated 2012).

Columns and labels:
[1] = test system: present invention protein (A2); test: Metabolism of compounds by the present invention protein (A2), reaction solution, HPLC; type: in vitro ADME, Saccharopolyspora taberi JCM 9383t; settings: 5 ppm of compound, components A, B, C, 20 μl supernatant fraction of Example 7(2), 30° C. for 10 minutes
[2] = test system: present invention protein (A3); test: Metabolism of compounds by the present invention protein (A3), reaction solution, HPLC; type: in vitro ADME, Streptomyces testaceus ATCC21469; settings: 5 ppm of compound, components A, B, C, 20 μl supernatant fraction of Example 12(2), 30° C. for 10 minutes
[3] = test system: present invention protein (A12); test: Metabolism of compounds by the present invention protein (A12), reaction solution, HPLC; type: in vitro ADME, Streptomyces tsusimaensis IFO 13782; settings: 5 ppm of compound, components A, B, C, 20 μl supernatant fraction of Example 34(2), 30° C. for 10 minutes
[4] = test system: present invention protein (A17); test: Metabolism of compounds by the present invention protein (A17), reaction solution, HPLC; type: in vitro ADME, Streptomyces griseus ATCC 10137; settings: 12.5 ppm of compound, components A, B, C, 20 μl supernatant fraction of Example 51(2), 30° C. for 10 minutes
[5] = test system: present invention protein (A19); test: Metabolism of compounds by the present invention protein (A19), reaction solution, HPLC; type: in vitro ADME, Streptomyces griseus IFO 13849T; settings: 12.5 ppm of compound, components A, B, C, 20 μl supernatant fraction of Example 55(2), 30° C. for 10 minutes
[6] = test system: present invention protein (A21); test: Metabolism of compounds by the present invention protein (A21), reaction solution, HPLC; type: in vitro ADME, Streptomyces misawanensis IFO 13855T; settings: 12.5 ppm of compound, components A, B, C, 20 μl supernatant fraction of Example 59(2), 30° C. for 10 minutes
[7] = test system: leaf pieces of the tobacco to which the present invention DNA (A1)S has been introduced; test: Evaluation of the resistance utilizing a leaf piece of the present invention DNA (A1)S transgenic tobacco; type: cell-based; settings: 1 point continuously grew, 0.5 halfly withered, 0 turned white and withered
Procedure: Next, other than culturing overnight the transgenic agrobacterium bearing the above plasmid at 30° C. in LB liquid medium containing 25 mg/L kanamycin, said agrobacterium were utilized to introduce genes into tobacco according to the method described in Example 19. There were obtained, respectively, transgenic tobaccos which have incorporated the T-DNA region of pBI-NdG6-rSt-657soy or pBI-NdG6-rSt12-657soy.
Leaves were taken from 35 transgenic tobaccos obtained in Example 47(9). Each leaf was divided into pieces in which each piece was 5 to 7 mm wide. Leaf pieces were planted onto MS agar medium containing 0, 0.05, 0.1 or 0.2 mg/L of compound (II) and cultured in the light at room temperature. On the 11th day of culturing, the herbicidal damage of each of the leaf pieces was observed. Further, leaf pieces were planted onto MS agar mediums containing 0, 0.01, 0.02, 0.05 or 0.1 mg/L of compound (XII) and cultured in the light at room temperature. On the 7th day of culturing, the herbicidal damage of each of the leaf pieces was observed. […] An average score for each group was determined by scoring 1 point to a leaf piece that continuously grew, 0.5 points to a halfly withered leaf piece in which chemical damage was observed, and 0 points to a leaf piece which turned white and had withered. […]

SMILES: Cn1c(C(F)(F)F)cc(=O)n(-c2cc(Oc3ccccc3OCC(=O)O)c(Cl)cc2F)c1=O [compound (XIII)]
- concentration of the compound detected from metabolism solution (A2) compared to control solution (A2) [1]: lower
- concentration of the compound detected from metabolism solution (A3) compared to control solution (A3) [2]: lower
- concentration of the compound detected from metabolism solution (A12) compared to control solution (A12) [3]: lower
- concentration of the compound detected from metabolism solution (A17) compared to control solution (A17) [4]: lower
- concentration of the compound detected from metabolism solution (A19) compared to control solution (A19) [5]: lower
- concentration of the compound detected from metabolism solution (A21) compared to control solution (A21) [6]: lower

SMILES: Cn1c(C(F)(F)F)cc(=O)n(-c2cc(Oc3cccnc3OCC(=O)O)c(Cl)cc2F)c1=O [compound (XII)]
- average score of leaf pieces compared with the wild type tobacco ([7]; MS agar mediums containing 0, 0.01, 0.02, 0.05 or 0.1 mg/L of compound (XII), 7th day): higher
- concentration of the compound detected from metabolism solution (A2) compared to control solution (A2) [1]: lower
- concentration of the compound detected from metabolism solution (A3) compared to control solution (A3) [2]: lower
- concentration of the compound detected from metabolism solution (A12) compared to control solution (A12) [3]: lower
- concentration of the compound detected from metabolism solution (A17) compared to control solution (A17) [4]: lower
- concentration of the compound detected from metabolism solution (A19) compared to control solution (A19) [5]: lower
- concentration of the compound detected from metabolism solution (A21) compared to control solution (A21) [6]: lower

SMILES: C[C@@H](Oc1cc(-n2c(=O)cc(C(F)(F)F)n(C)c2=O)c(F)cc1Cl)C(=O)O [compound (II)]
- average score of leaf pieces compared with the wild type tobacco ([7]; MS agar medium containing 0, 0.05, 0.1 or 0.2 mg/L of compound (II), 11th day): higher
